This is an account of results in US10844057B2, “Process for preparing JAK inhibitors and intermediates thereof” (priority 2018, dated 2020).

The target in one series is Tyk2 (Homo sapiens (Human), UniProt P29597). In words: Biochemical JAK kinase assay (LanthaScreen), Tyk2. Particulars: converted from pIC50 using Cheng-Prusoff; ATP 10 μM. As for the experimental part: (§1) Assay 1: Biochemical JAK Kinase Assays
(§2) A panel of four LanthaScreen JAK biochemical assays (JAK1, 2, 3 and Tyk2) were carried in a common kinase reaction buffer (50 mM HEPES, pH 7.5, 0.01% Brij-35, 10 mM MgCl2, and 1 mM EGTA). Recombinant GST-tagged JAK enzymes and a GFP-tagged STAT1 peptide substrate were obtained from Life Technologies.
(§3) Serially diluted compounds were pre-incubated with each of the four JAK enzymes and the substrate in white 384-well microplates (Corning) at ambient temperature for 1 h. ATP was subsequently added to initiate the kinase reactions in 10 μL total volume, with 1% DMSO. […] Kinase reactions were allowed to proceed for 1 hour at ambient temperature before a 10 μL preparation of EDTA (10 mM final concentration) and Tb-anti-pSTAT1 (pTyr701) antibody (Life Technologies, 2 nM final concentration) in TR-FRET dilution buffer (Life Technologies) was added. The plates were allowed to incubate at ambient temperature for 1 h before being read on the EnVision reader (Perkin Elmer). Emission ratio signals (520 nm/495 nm) were recorded and utilized to calculate the percent inhibition values based on DMSO and background controls.
(§4) For dose-response analysis, percent inhibition data were plotted vs. compound concentrations, and IC50 values were determined from a 4-parameter robust fit model with the Prism software (GraphPad Software). Results were expressed as pIC50 (negative logarithm of IC50) and subsequently converted to pKi (negative logarithm of dissociation constant, Ki) using the Cheng-Prusoff equation.
For orientation: Time-resolved FRET reads energy transfer from a long-lived donor to a nearby acceptor.

The next series addresses JAK2 (Homo sapiens (Human), UniProt O60674). In words: Biochemical JAK kinase assay (LanthaScreen), JAK2. To be noted: converted from pIC50 using Cheng-Prusoff; ATP 3 μM. As for the experimental part: as §1, §2, §3, §4
Series [1] has as its system IL-2 stimulated STAT5 phosphorylation in Tall-1 human T cell line. In words: Inhibition of IL-2 stimulated pSTAT5 in Tall-1 T cells. Format: cell-based. Particulars: IL-2 300 ng/mL, pSTAT5 AlphaLisa, Tall-1 cells, read-out: Tall-1 pIC50 (converted). As for the experimental part:
Assay 2: Inhibition of IL-2 Stimulated pSTAT5 in Tall-1 T Cells
The potency of test compounds for inhibition of interleukin-2 (IL-2) stimulated STAT5 phosphorylation was measured in the Tall-1 human T cell line (DSMZ) using AlphaLisa.
Phosphorylated STAT5 was measured via the AlphaLISA SureFire Ultra pSTAT5 (Tyr694/699) kit (PerkinElmer).
Compounds were serially diluted in DMSO and dispensed acoustically to empty wells. Assay media (phenol red-free DMEM (Life Technologies) supplemented with 10% FBS (ATCC)) was dispensed (4 μL/well) and plates shaken at 900 rpm for 10 mins. Cells were seeded at 45,000 cells/well in assay media (4 μL/well), and incubated at 37° C., 5% CO2 for 1 hour, followed by the addition of IL-2 (R&D Systems; final concentration 300 ng/mL) in pre-warmed assay media (4 μL) for 30 minutes. […] The lysate was shaken at 900 rpm for 10 minutes at room temperature (RT). Phosphorylated STAT5 was measured via the pSTAT5 AlphaLisa kit (PerkinElmer). Freshly prepared acceptor bead mixture was dispensed onto lysate (5 μL) under green filtered <100 lux light. Plates were shaken at 900 rpm for 2 mins, briefly spun down, and incubated for 2 hrs at RT in the dark. Donor beads were dispensed (5 μL) under green filtered <100 lux light. Plates were shaken at 900 rpm for 2 minutes, briefly spun down, and incubated overnight at RT in the dark. Luminescence was measured with excitation at 689 nm and emission at 570 nm using an EnVision plate reader (PerkinElmer) under green filtered <100 lux light.
To determine the inhibitory potency of test compounds in response to IL-2, the average emission intensity of beads bound to pSTAT5 was measured in a human T cell line. IC50 values were determined from analysis of the inhibition curves of signal intensity versus compound concentration. Data are expressed as pIC50 (negative decadic logarithm IC50) values (mean±standard deviation).
A general note: Alpha assays give light when donor and acceptor beads are brought close together.

For a further series, the target named is JAK3 (Homo sapiens (Human), UniProt P52333). Briefly: Biochemical JAK kinase assay (LanthaScreen), JAK3. To be noted: converted from pIC50 using Cheng-Prusoff; ATP 1.6 μM. As for the experimental part:
as §1, §2, §3, §4

Series [2] is described as follows: Lung and plasma exposure in mice after oral aspiration. Format: in vivo. Particulars: mouse, other: oral aspiration, 50 µg/animal; for concentration at 5 h: Balb/c mice, 1 mg/mL, 50 μL via oral aspiration. As for the experimental part:
Adult Balb/c mice from Harlan were used in the assay. […] Animals were placed in lateral recumbency post dose and monitored for full recovery from anesthesia before being returned to their home cage. Four hours later, animals were once again briefly anesthetized and challenged with either vehicle or IL-13 (0.03 μg total dose delivered, 50 μL total volume) via oral aspiration before being monitored for recovery from anesthesia and returned to their home cage. One hour after vehicle or IL-13 administration, whole blood and lungs were collected for both pSTAT6 detection in lung homogenates using a Perkin Elmer AlphaLISA® SureFire® Ultra™ HVp-STAT6 (Tyr641) assay kit and for total drug concentration analysis in both lung and plasma. Blood samples were centrifuged (Eppendorf centrifuge, 5804R) for 4 minutes at approximately 12,000 rpm at 4° C. to collect plasma. […] Plasma and lung levels of test compound were determined by LC-MS analysis against analytical standards constructed into a standard curve in the test matrix. A lung to plasma ratio was determined as the ratio of the lung concentration in ng/g to the plasma concentration in ng/mL at 5 hours.

Read-outs that look alike come from different tables or passages of the source.

Tyk2, sequence (P29597 whole entry): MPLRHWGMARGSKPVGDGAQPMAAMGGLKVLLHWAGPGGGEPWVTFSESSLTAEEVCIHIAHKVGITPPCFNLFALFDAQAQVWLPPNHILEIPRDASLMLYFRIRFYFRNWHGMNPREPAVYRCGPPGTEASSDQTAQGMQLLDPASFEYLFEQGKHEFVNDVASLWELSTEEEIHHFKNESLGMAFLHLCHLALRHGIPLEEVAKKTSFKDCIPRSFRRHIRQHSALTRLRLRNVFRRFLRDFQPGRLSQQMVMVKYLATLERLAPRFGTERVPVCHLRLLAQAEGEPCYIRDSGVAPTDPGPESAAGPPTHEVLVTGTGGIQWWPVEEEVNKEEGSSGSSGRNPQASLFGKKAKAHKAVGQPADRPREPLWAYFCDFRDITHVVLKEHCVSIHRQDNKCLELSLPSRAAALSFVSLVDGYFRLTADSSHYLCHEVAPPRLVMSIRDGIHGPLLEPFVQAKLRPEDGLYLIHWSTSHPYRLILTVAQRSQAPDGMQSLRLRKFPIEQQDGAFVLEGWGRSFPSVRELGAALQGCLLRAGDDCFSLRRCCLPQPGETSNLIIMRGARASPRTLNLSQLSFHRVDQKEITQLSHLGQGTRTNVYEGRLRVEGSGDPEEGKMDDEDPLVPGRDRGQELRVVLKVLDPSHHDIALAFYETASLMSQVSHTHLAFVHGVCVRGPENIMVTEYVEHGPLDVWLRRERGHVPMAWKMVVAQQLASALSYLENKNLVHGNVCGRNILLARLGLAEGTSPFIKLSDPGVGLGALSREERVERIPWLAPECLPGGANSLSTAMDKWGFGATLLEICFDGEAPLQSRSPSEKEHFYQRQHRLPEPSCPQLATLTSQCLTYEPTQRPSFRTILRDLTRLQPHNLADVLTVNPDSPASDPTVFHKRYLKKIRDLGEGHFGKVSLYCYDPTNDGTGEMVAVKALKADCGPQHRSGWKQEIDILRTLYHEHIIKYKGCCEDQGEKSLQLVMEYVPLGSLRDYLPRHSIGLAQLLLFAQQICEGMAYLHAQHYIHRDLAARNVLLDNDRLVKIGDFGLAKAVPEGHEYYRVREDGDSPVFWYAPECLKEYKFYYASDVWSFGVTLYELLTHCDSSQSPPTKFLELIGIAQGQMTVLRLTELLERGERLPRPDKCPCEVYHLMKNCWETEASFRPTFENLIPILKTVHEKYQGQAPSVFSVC
JAK3, sequence (P52333 whole entry): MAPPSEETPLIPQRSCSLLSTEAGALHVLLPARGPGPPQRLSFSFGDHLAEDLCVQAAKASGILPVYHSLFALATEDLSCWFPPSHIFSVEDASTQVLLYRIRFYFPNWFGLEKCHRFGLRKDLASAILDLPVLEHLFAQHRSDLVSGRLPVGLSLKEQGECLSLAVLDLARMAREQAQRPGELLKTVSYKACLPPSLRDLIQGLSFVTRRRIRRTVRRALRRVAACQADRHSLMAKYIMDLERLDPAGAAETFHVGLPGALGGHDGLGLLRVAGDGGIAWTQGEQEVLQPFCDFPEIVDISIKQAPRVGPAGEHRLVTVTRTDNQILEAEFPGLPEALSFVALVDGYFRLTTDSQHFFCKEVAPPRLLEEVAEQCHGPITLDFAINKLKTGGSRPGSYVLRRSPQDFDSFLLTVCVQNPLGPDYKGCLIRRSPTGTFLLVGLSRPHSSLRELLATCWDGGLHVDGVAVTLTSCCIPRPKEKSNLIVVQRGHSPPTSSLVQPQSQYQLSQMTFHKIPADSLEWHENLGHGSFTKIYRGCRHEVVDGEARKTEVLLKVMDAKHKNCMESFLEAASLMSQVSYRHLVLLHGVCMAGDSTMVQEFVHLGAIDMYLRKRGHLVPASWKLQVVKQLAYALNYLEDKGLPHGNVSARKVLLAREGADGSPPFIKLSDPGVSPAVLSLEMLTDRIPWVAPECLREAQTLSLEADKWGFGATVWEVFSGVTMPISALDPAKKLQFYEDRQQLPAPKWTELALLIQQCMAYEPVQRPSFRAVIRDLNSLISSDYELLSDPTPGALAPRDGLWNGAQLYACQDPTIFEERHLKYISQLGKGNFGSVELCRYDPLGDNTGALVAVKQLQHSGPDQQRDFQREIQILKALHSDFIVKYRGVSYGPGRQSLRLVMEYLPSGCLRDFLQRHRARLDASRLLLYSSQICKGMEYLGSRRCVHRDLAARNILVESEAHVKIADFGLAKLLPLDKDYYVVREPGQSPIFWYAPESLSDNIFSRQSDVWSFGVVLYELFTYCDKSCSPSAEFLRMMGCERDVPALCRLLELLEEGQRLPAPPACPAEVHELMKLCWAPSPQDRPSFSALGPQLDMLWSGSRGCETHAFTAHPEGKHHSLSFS
JAK2, sequence (O60674 whole entry): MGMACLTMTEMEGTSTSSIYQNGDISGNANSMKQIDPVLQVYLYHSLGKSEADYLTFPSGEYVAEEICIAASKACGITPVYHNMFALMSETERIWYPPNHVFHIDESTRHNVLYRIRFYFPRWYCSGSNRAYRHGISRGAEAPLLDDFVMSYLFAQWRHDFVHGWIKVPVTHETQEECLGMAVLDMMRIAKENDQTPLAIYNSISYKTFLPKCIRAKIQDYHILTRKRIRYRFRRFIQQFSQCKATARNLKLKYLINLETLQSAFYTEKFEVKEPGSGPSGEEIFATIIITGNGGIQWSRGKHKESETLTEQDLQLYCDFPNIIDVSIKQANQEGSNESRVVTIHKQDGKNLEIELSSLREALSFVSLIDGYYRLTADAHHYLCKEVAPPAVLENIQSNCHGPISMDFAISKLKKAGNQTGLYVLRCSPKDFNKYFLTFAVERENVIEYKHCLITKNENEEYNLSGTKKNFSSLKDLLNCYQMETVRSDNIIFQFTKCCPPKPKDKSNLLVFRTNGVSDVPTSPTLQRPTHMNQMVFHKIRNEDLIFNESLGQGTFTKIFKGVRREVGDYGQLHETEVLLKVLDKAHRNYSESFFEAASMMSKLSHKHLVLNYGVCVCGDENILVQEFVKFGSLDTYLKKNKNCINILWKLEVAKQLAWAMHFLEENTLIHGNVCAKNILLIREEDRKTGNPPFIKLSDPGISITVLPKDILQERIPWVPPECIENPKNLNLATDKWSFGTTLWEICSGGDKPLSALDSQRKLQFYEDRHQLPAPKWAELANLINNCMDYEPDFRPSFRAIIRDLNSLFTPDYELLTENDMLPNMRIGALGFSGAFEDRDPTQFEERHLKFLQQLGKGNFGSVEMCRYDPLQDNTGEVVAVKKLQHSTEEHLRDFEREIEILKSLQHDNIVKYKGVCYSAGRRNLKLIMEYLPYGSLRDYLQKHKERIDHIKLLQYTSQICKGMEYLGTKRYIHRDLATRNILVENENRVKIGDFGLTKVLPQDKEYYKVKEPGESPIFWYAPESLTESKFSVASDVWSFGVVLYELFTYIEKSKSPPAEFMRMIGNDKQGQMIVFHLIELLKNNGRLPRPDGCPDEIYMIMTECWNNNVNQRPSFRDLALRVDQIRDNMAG

Consider `CCc1cc(O)c(F)cc1-c1ccc2c(-c3nc4c([nH]3)CN(C(C)C)[C@H](C(=O)N3CC(N(C)C)C3)C4)n[nH]c2c1` [Example 8, (S)-(3-(dimethylamino)azetidin-1-yl)(2-(6-(2-ethyl-5-fluoro-4-hydroxyphenyl)-1H-indazol-3-yl)-5-isopropyl-4,5,6,7-tetrahydro-3H-imidazo[4,5-c]pyridin-6-yl)methanone], for which the “Tyk2 pKi” value at Tyk2 is recorded as 9.5. Also, on JAK2, the “JAK2 pKi” value is 10.8. Further, in series [1], the IC50 was 1.58 nM. Further, at JAK3, the “JAK3 pKi” value is recorded as 10.1. For the same molecule, the Kp at 5 h in series [2] (Balb/c, lung and plasma, lung ng/g to plasma ng/mL, mice, read-out: Lung to Plasma ratio at 5 hr) came out at 381. Moreover, the concentration at 5 h in series [2] (lung, read-out: Lung Concentration (ng/g) at 5 hr) was 22100 ± 5550 ng/g; in series [2] (plasma, read-out: Plasma Concentration (ng/mL) at 5 hr), 58 ± 17 ng/mL.
